Tested on: Raji tumor-bearing nude mice
Experiment: In vivo vasopermeability / biodistribution study, Raji lymphoma model (tumor uptake of 125I-Lym-1 F(ab')2 after pre-treatment)
Protocol: The Raji lymphoma cell line was used to produce heterotransplants in 6-week-old female nude mice by the subcutaneous injection of a 0.2 ml inoculum consisting of 4×10^7 Raji cells and 4×10^6 human fetal fibroblast feeder cells in the left thigh. Three days prior to injection, the mice were irradiated with 400 rads using a cesium irradiator to ensure a high take rate of the implanted cells. The tumors were grown for 14-18 days until they grew to approximately 1 cm in diameter.
To test the relative effects of the immunoconjugates on the biodistribution and tumor uptake of Lym-1 or TNT-1 in tumor-bearing mice, separate groups of 4-5 mice were given intravenous injections of 30 μg of antibody alone or antibody conjugate. At 2.5 hr after injection, each group received 50 μCi of ^125I-labeled Lym-1 or TNT-1 F(ab′)2 fragment as tracer.
All animals were sacrificed 72 hr later, by sodium pentobarbital overdose, for biodistribution analysis. Various organs, blood, and tumor were removed, weighed, and samples were counted in a gamma counter. For each mouse, data were expressed as tumor:organ ratio (cpm per gram tumor/cpm per gram organ) and percent injected dose/gram (% ID/g).

Row | Substance | Vasopermeability (% Lym-1/IL-2) (i.v., enhanced Lym-1 uptake relative to Lym-1/IL-2 conjugate, 30-40 pM of peptide per assay) | Vasopermeability activity (in words) (intravenous administration)
1 | 3C: synthetic IL-2 peptide, amino acids 22-58 (SEQ ID NO:1), permeability enhancing peptide (EMILNGINNYKNPKLTRMLTFKFYMPKKATELKHLQC; listed as Homo sapiens) [Fragment 3C] | 0 | 
2 | E6: synthetic peptide fragment of human IL-2, amino acids 22-38 (QMILNGINNYKNPKLTR; UniProt P60568 42-58, looked up, fragment) [Fragment E6] |  | no activity

— US6737064B2, “Method for the diagnosis of neoplastic tissue comprising administering a vasopermeability enhancing peptide of human interleukin-2” (The University of Southern California, priority 1996, dated 2004)
